Results taken from the NIST ThermoML archive (doi:10.1016/j.jct.2007.02.009).
Numbers after ± are expanded uncertainties.

Assay: molar heat capacity at constant pressure
Conditions: 101.33 kPa, Crystal

CN(C)C=O [dimethylformamide]
Conditions	molar heat capacity at constant pressure [J/K/mol]
5 K	0.221 ± 0.025
7.54 K	0.753 ± 0.026
7.59 K	0.763 ± 0.026
8.21 K	0.931 ± 0.028
8.29 K	0.964 ± 0.028
8.88 K	1.19 ± 0.03
9.41 K	1.46 ± 0.04
9.52 K	1.55 ± 0.04
9.91 K	1.74 ± 0.04
10 K	1.79 ± 0.05
10.37 K	1.995 ± 0.043
10.81 K	2.263 ± 0.046
11.24 K	2.533 ± 0.05
11.66 K	2.776 ± 0.053
12.07 K	2.996 ± 0.056
12.44 K	3.216 ± 0.059
12.83 K	3.574 ± 0.063
13.05 K	3.741 ± 0.066
13.48 K	4.017 ± 0.069
14.16 K	4.518 ± 0.075
14.83 K	5.048 ± 0.082
15 K	5.187 ± 0.091
15.49 K	5.622 ± 0.089
16.15 K	6.115 ± 0.094
16.81 K	6.702 ± 0.1
17.45 K	7.307 ± 0.11
18.1 K	7.9 ± 0.12
18.75 K	8.506 ± 0.12
19.2 K	8.88 ± 0.13
19.64 K	9.354 ± 0.13
20 K	9.678 ± 0.13
20.28 K	9.986 ± 0.14
21.81 K	11.31 ± 0.15
24.35 K	13.98 ± 0.18
25 K	14.64 ± 0.15
26.01 K	15.67 ± 0.19
28.18 K	17.9 ± 0.21
29.89 K	19.58 ± 0.22
30 K	19.63 ± 0.16
32.35 K	21.81 ± 0.25
34.82 K	24.08 ± 0.27
37.3 K	26.24 ± 0.29
39.15 K	27.83 ± 0.31
40 K	28.52 ± 0.19
40.98 K	29.35 ± 0.18
42.91 K	30.92 ± 0.19
43.45 K	31.29 ± 0.19
44.78 K	32.3 ± 0.2
45.93 K	33.16 ± 0.2
49.17 K	35.67 ± 0.21
50 K	36.34 ± 0.23
51.08 K	37.1 ± 0.22
53.56 K	38.97 ± 0.23
56.03 K	40.81 ± 0.24
58.51 K	42.63 ± 0.25
60 K	43.49 ± 0.25
60.98 K	44.1 ± 0.25
63.46 K	45.65 ± 0.26
65.93 K	47.18 ± 0.27
68.4 K	49.19 ± 0.28
70 K	49.95 ± 0.28
70.88 K	50.36 ± 0.28
73.21 K	52.04 ± 0.29
75.22 K	52.99 ± 0.3
77.32 K	54.31 ± 0.3
79.34 K	55.1 ± 0.31
80 K	55.45 ± 0.3
82.06 K	56.51 ± 0.31
84.87 K	57.9 ± 0.32
87.85 K	59.4 ± 0.33
90 K	60.47 ± 0.52
90.82 K	60.89 ± 0.44
93.8 K	62.3 ± 0.45
96.76 K	63.67 ± 0.45
99.73 K	65.16 ± 0.46
100 K	65.36 ± 0.53
102.7 K	66.55 ± 0.46
105.67 K	67.8 ± 0.47
106.15 K	68.12 ± 0.47
108.64 K	69.18 ± 0.47
109.01 K	69.31 ± 0.47
110 K	69.68 ± 0.54
111.61 K	70.34 ± 0.48
111.97 K	70.65 ± 0.48
114.57 K	71.6 ± 0.48
114.94 K	71.75 ± 0.48
117.89 K	73.04 ± 0.48
120 K	73.76 ± 0.55
120.75 K	74.11 ± 0.49
123.71 K	75.3 ± 0.49
126.68 K	76.26 ± 0.5
129.64 K	77.49 ± 0.5
130 K	77.82 ± 0.56
132.61 K	78.6 ± 0.5
138.24 K	80.9 ± 0.51
